Results from patent publication US11793849B2, “Method of Chinese herbal medicine extract used for treating multiple diseases caused by drug resistant bacteria infection” (priority 2016, dated 2023).
Where two headings read alike, the source gives them in different places.

Assays:
MDRPA = test: Checkerboard assay (combined-use MIC, FIC); type: cell-based, Pseudomonas aeruginosa; details: for FIC, all strains / MIC50 of the antibiotic after combined use / MIC90 of the antibiotic after combined use / reduction of the antibiotic's MIC50 vs single use / reduction of the antibiotic's MIC90 vs single use / share of strains with FIC ≤ 0.5: 20 MDRPAs
How it was run: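 Checkerboard combinations of S20b and antibiotic run per NCCLS method against ESBL E. coli, MDR A. baumannii and MDR P. aeruginosa.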

ATCC27853 = test: MIC determination, control strain; type: cell-based
Procedure: Determination methods of a Minimal Inhibitory Concentration (MIC) and a Minimum Bactericidal Concentration (MBC) of a test product: the MIC and the MBC of the Pithecellobium clypearia Benth water or ethanol extract to the MDRAB are determined by a microdilution broth method.

[1] = antibiotic with 60% ethanol extract
[2] = antibiotic with 95% ethanol extract
[3] = antibiotic with EA (water extract)

CC(C)(O/N=C(\C(=O)N[C@@H]1C(=O)N2C(C(=O)[O-])=C(C[n+]3ccccc3)CS[C@H]12)c1csc(N)n1)C(=O)O [CAZ, Ceftazidime]
16 mg/L: MIC50 of the antibiotic after combined use (MDRPA; [2]) | combined-use MIC (MDRPA; strain P1, EA (P. clypearia 10% ethanol extract) combined with CAZ) | combined-use MIC (MDRPA; strain P2, EA (P. clypearia 10% ethanol extract) combined with CAZ) | combined-use MIC (MDRPA; strain P2, EA (P. clypearia water extract) combined with CAZ) | combined-use MIC (MDRPA; strain P18, EA (P. clypearia water extract) combined with CAZ)
256 mg/L: combined-use MIC (MDRPA; strain P6, EA (P. clypearia 10% ethanol extract) combined with CAZ) | combined-use MIC (MDRPA; strain P6, EA (P. clypearia water extract) combined with CAZ)
1 mg/L: combined-use MIC (MDRPA; strain P11, EA (P. clypearia 10% ethanol extract) combined with CAZ) | combined-use MIC (MDRPA; strain P11, EA (P. clypearia water extract) combined with CAZ)
2 mg/L: combined-use MIC (MDRPA; strain P3, EA (P. clypearia 10% ethanol extract) combined with CAZ) | combined-use MIC (MDRPA; strain P3, EA (P. clypearia water extract) combined with CAZ) | combined-use MIC (MDRPA; strain P10, EA (P. clypearia 10% ethanol extract) combined with CAZ) | combined-use MIC (MDRPA; strain P10, EA (P. clypearia water extract) combined with CAZ) | combined-use MIC (MDRPA; strain P12, EA (P. clypearia 10% ethanol extract) combined with CAZ) | combined-use MIC (MDRPA; strain P12, EA (P. clypearia water extract) combined with CAZ) | combined-use MIC (MDRPA; strain P19, EA (P. clypearia 10% ethanol extract) combined with CAZ) | combined-use MIC (MDRPA; strain P19, EA (P. clypearia water extract) combined with CAZ)
64 mg/L: MIC90 of the antibiotic after combined use (MDRPA; [1]) | MIC90 of the antibiotic after combined use (MDRPA; [3]) | combined-use MIC (MDRPA; strain P4, EA (P. clypearia 10% ethanol extract) combined with CAZ) | combined-use MIC (MDRPA; strain P4, EA (P. clypearia water extract) combined with CAZ) | combined-use MIC (MDRPA; strain P8, EA (P. clypearia 10% ethanol extract) combined with CAZ) | combined-use MIC (MDRPA; strain P8, EA (P. clypearia water extract) combined with CAZ) | combined-use MIC (MDRPA; strain P20, EA (P. clypearia 10% ethanol extract) combined with CAZ) | combined-use MIC (MDRPA; strain P20, EA (P. clypearia water extract) combined with CAZ)
8 mg/L: MIC50 of the antibiotic after combined use (MDRPA; [1]) | MIC50 of the antibiotic after combined use (MDRPA; [3]) | combined-use MIC (MDRPA; strain P1, EA (P. clypearia water extract) combined with CAZ) | combined-use MIC (MDRPA; strain P14, EA (P. clypearia 10% ethanol extract) combined with CAZ) | combined-use MIC (MDRPA; strain P14, EA (P. clypearia water extract) combined with CAZ) | combined-use MIC (MDRPA; strain P16, EA (P. clypearia 10% ethanol extract) combined with CAZ) | combined-use MIC (MDRPA; strain P16, EA (P. clypearia water extract) combined with CAZ) | combined-use MIC (MDRPA; strain P17, EA (P. clypearia 10% ethanol extract) combined with CAZ) | combined-use MIC (MDRPA; strain P17, EA (P. clypearia water extract) combined with CAZ)
45%: share of strains with FIC ≤ 0.5 (MDRPA; [3])
≤ 2: FIC, all strains (MDRPA; [1]) | FIC, all strains (MDRPA; [2]) | FIC, all strains (MDRPA; [3])
25%: share of strains with FIC ≤ 0.5 (MDRPA; [2])
4 mg/L: combined-use MIC (MDRPA; strain P9, EA (P. clypearia 10% ethanol extract) combined with CAZ) | combined-use MIC (MDRPA; strain P9, EA (P. clypearia water extract) combined with CAZ) | combined-use MIC (MDRPA; strain P13, EA (P. clypearia 10% ethanol extract) combined with CAZ) | combined-use MIC (MDRPA; strain P13, EA (P. clypearia water extract) combined with CAZ) | MIC (ATCC27853; EA=10% ethanol extract, read-out: MIC) | MIC (ATCC27853; EA=60% ethanol extract, read-out: MIC) | MIC (ATCC27853; EA=95% ethanol extract, read-out: MIC) | MIC (ATCC27853; EA=P. clypearia 10% ethanol extract, read-out: MIC (single use)) | MIC (ATCC27853; EA=P. clypearia water extract, read-out: MIC (single use)) | MIC (ATCC27853; EA=water extract, read-out: MIC) | MIC (ATCC27853; single use, EA = 60% ethanol extract, read-out: MIC) | MIC (ATCC27853; single use, EA = 95% ethanol extract, read-out: MIC)
50%: reduction of the antibiotic's MIC50 vs single use (MDRPA; [2]) | reduction of the antibiotic's MIC90 vs single use (MDRPA; [2])
32 mg/L: combined-use MIC (MDRPA; strain P5, EA (P. clypearia 10% ethanol extract) combined with CAZ) | combined-use MIC (MDRPA; strain P5, EA (P. clypearia water extract) combined with CAZ) | combined-use MIC (MDRPA; strain P7, EA (P. clypearia 10% ethanol extract) combined with CAZ) | combined-use MIC (MDRPA; strain P7, EA (P. clypearia water extract) combined with CAZ) | combined-use MIC (MDRPA; strain P18, EA (P. clypearia 10% ethanol extract) combined with CAZ)
40%: share of strains with FIC ≤ 0.5 (MDRPA; [1])
128 mg/L: MIC90 of the antibiotic after combined use (MDRPA; [2]) | combined-use MIC (MDRPA; strain P15, EA (P. clypearia 10% ethanol extract) combined with CAZ) | combined-use MIC (MDRPA; strain P15, EA (P. clypearia water extract) combined with CAZ)
75%: reduction of the antibiotic's MIC50 vs single use (MDRPA; [1]) | reduction of the antibiotic's MIC90 vs single use (MDRPA; [1]) | reduction of the antibiotic's MIC50 vs single use (MDRPA; [3]) | reduction of the antibiotic's MIC90 vs single use (MDRPA; [3])
